In the assay the target is WT EZH2 (EZH2 4 protein complex: EZH2, EED, SUZ12, RbAp48) (Homo sapiens, UniProt O75530+Q09028+Q15022+Q15910). The assay can be described thus: WT EZH2 nucleosome assay. Format: biochemical. As to conditions: nucleosome assay, 5 nM EZH2 4-protein complex, 1.5 μM SAM; read-out: WT EZH2 IC50. An outline of the steps: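 IC50 values come from 4-parameter fits of 11-point dose responses, with % effect also given at 20 μM. Reactions held HeLa oligonucleosomes (25 μg/mL), rH1 (50 nM), 1.5 μM tritiated SAM and 5 nM enzyme complex at pH 8.5 Tris/DTT/Tween; stopped by TCA after 60 min, filtered and scintillation-counted.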
Chain of WT EZH2 (EZH2 4 protein complex: EZH2, EED, SUZ12, RbAp48) (Q15910 whole entry): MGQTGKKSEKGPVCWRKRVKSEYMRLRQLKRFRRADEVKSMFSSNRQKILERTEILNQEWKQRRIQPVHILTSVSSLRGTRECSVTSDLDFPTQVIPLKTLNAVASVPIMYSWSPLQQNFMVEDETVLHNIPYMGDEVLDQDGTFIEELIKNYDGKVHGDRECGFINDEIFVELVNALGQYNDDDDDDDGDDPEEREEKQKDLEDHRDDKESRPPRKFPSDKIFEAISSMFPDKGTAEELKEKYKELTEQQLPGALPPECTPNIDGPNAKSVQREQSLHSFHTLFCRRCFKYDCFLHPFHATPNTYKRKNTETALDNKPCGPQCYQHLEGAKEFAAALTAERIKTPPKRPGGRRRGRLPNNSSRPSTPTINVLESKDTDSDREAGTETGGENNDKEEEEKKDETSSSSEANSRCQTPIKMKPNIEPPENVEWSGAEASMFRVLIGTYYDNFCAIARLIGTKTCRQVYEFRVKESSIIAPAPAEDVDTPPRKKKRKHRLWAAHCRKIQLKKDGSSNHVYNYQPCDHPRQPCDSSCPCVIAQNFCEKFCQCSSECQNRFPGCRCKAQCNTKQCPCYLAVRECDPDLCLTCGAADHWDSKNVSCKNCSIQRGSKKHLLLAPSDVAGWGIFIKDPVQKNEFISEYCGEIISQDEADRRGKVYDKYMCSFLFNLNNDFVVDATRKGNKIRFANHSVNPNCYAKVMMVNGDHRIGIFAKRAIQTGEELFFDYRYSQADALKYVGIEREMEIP
Chain of WT EZH2 (EZH2 4 protein complex: EZH2, EED, SUZ12, RbAp48) (O75530 whole entry partner): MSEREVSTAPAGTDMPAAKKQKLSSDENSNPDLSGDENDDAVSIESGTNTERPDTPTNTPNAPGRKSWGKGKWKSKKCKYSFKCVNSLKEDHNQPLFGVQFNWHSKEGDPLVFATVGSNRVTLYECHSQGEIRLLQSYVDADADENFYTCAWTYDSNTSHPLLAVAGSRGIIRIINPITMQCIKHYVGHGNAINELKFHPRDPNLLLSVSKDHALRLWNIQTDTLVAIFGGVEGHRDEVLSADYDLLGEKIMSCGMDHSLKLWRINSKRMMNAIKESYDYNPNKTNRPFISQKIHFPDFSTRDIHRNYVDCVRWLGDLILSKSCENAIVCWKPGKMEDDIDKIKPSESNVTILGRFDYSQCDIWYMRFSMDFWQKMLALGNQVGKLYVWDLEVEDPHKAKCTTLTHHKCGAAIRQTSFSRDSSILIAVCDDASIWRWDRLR
Chain of WT EZH2 (EZH2 4 protein complex: EZH2, EED, SUZ12, RbAp48) (Q15022 whole entry partner): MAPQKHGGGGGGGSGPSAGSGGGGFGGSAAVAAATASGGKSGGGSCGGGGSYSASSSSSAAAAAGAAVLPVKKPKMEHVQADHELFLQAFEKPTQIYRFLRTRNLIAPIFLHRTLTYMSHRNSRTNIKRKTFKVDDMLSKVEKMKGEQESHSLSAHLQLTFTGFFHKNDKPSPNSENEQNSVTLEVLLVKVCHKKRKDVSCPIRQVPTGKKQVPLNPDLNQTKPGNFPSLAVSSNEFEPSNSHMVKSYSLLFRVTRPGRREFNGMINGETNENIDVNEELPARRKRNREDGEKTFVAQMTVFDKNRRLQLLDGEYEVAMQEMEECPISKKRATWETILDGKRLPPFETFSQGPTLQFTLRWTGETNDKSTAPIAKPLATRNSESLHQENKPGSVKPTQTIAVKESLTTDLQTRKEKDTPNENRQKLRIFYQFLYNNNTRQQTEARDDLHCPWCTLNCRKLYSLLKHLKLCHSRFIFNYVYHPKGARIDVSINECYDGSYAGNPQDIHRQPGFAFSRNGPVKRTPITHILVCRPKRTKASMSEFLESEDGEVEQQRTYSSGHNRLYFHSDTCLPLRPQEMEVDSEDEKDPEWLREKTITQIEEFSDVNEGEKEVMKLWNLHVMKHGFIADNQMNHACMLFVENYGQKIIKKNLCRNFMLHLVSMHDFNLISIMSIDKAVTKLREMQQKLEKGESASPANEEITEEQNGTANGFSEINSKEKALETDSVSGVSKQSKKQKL
Chain of WT EZH2 (EZH2 4 protein complex: EZH2, EED, SUZ12, RbAp48) (Q09028 whole entry partner): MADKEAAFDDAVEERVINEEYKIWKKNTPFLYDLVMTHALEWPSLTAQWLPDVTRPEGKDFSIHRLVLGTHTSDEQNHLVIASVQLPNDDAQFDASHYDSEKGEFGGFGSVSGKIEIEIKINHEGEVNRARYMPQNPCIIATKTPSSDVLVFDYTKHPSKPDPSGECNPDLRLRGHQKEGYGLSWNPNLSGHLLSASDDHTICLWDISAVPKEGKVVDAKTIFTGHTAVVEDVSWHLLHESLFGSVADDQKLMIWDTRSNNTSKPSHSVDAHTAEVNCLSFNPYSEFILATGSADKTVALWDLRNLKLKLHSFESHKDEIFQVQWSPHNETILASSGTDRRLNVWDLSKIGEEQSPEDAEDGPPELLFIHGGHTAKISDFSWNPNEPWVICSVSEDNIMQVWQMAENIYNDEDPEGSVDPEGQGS

For `Cc1cc(C)c(CNC(=O)c2nc(-c3cnn(C)c3)nc(N3CCOC[C@@H]3C)c2C(F)(F)F)c(=O)[nH]1` [Example 104, N-[(4,6-dimethyl-2-oxo-1,2-dihydropyridin-3-yl)methyl]-6-[(3S)-3-methylmorpho-lin-4-yl]-2-(1-methyl-1H-pyrazol-4-yl)-5-(trifluoromethyl) pyrimidine-4-carboxamide], the IC50 (as a rule, the point on the concentration scale where inhibition reaches its midpoint) was 19.4 µM. With `Cc1cc(C)c(CNC(=O)c2nc(OCCN3CCC(F)(F)C3)nc(-c3ccnn3C)c2C)c(=O)[nH]1` [Example 105, 2-[2-(3,3-difluoropyrroli-din-1-yl)ethoxy]-N-[(4,6-dimethyl-2-oxo-1,2-dihydropyridin-3-yl)methyl]-5-methyl-6-(1-methyl-1H-pyrazol-5-yl)pyrimidine-4-carboxamide] the figure was 19.8 µM. Take `Cc1cc(C)c(CNC(=O)c2ncnc(N3CC[C@H](C)C3)c2C)c(=O)[nH]1` [Example 107, N-[(4,6-dimethyl-2-oxo-1,2-dihydropyridin-3-yl)methyl]-5-methyl-6-[(3S)-3-methylpyrrolidin-1-yl]pyrimidine-4-carboxamide]: the concentration for half-maximal inhibition (IC50) came out at 21.8 µM.

On to `COc1nc(C(=O)NCc2c(C)cc(C)[nH]c2=O)c(C)c(-c2ccnn2C)n1` [Example 108, N-[(4,6-dimethyl-2-oxo-1,2-dihydropyridin-3-yl)methyl]-2-methoxy-5-methyl-6-(1-methyl-1H-pyrazol-5-yl)pyrimidine-4-carboxamide], for which the IC50 was found to be 22.2 µM.

For the compound `Cc1cc(C)c(CNC(=O)c2nc(OCCN3CC(F)C3)nc(-c3ccnn3C)c2C)c(=O)[nH]1` [Example 109, N-[(4,6-dimethyl-2-oxo-1,2-dihydropyridin-3-yl)methyl]-2-[2-(3-fluoroazetidin-1-yl)ethoxy]-5-methyl-6-(1-methyl-1H-pyrazol-5-yl)pyrimidine-4-carboxamide], the IC50 is 23 µM. On to `Cc1cc(C)c(CNC(=O)c2nccc(-c3ccnn3C)c2C)c(=O)[nH]1` [Example 110, N-[(4,6-dimethyl-2-oxo-1,2-dihydropyridin-3-yl)methyl]-3-methyl-4-(1-methyl-1H-pyrazol-5-yl)pyridine-2-carboxamide], for which the IC50 was found to be 23.2 µM. The same measure for `Cc1cc(C)c(CNC(=O)c2cccc(-n3cnnc3C)c2C)c(=O)[nH]1` [Example 111, N-[(4,6-dimethyl-2-oxo-1,2-dihydropyridin-3-yl)methyl]-2-methyl-3-(3-methyl-4H-1,2,4-triazol-4-yl)benzamide]: 24.8 µM; for `Cc1cc(C)c(CNC(=O)c2ncnc(N3CCCC3C(C)C)c2C)c(=O)[nH]1` (stereo not shown) [Example 112, N-[(4,6-dimethyl-2-oxo-1,2-dihydropyridin-3-yl)methyl]-6-(2-isopropylpyrroli-din-1-yl)-5-methylpyrimidine-4-carboxamide]: 25.3 µM; for `Cc1cc(C)c(CNC(=O)c2nc(O[C@H]3CCOC3)nc(-c3ccnn3C)c2C)c(=O)[nH]1` [Example 114, N-[(4,6-dimethyl-2-oxo-1,2-dihydropyridin-3-yl)methyl]-5-methyl-6-(1-methyl-1H-pyrazol-5-yl)-2-[(3S)-tetrahydro-furan-3-yloxy]pyrimidine-4-carboxamide]: 28.4 µM.

Turning to `Cc1cc(C)c(CNC(=O)c2ncnc(-c3ccnn3C)c2Cl)c(=O)[nH]1` [Example 115, 5-chloro-N-[(4,6-dimethyl-2-oxo-1,2-dihydropyridin-3-yl)methyl]-6-(1-methyl-1H-pyrazol-5-yl)pyrimidine-4-carboxamide], the IC50 was 28.7 µM. With `Cc1cc(C)c(CNC(=O)c2ncnc(N3CCC[C@@H]3C#N)c2C)c(=O)[nH]1` [Example 116, 6-[(2R)-2-cyanopyrrolidin-1-yl]-N-[(4,6-dimethyl-2-oxo-1,2-dihydropyridin-3-yl)methyl]-5-methyl-pyrimidine-4-carboxamide] the figure was 29.2 µM; with `Cc1cc(C)c(CNC(=O)c2nc(OCCN3CC(F)(F)C3)nc(-c3ccnn3C)c2C)c(=O)[nH]1` [Example 117, 2-[2-(3,3-difluoroazetidin-1-yl)ethoxy]-N-[(4,6-dimethyl-2-oxo-1,2-dihydropyridin-3-yl)methyl]-5-methyl-6-(1-methyl-1H-pyrazol-5-yl)pyrimidine-4-carboxamide], 31.1 µM. With `CCCc1cc(C)[nH]c(=O)c1CNC(=O)c1nc(C2CC2)nc(-c2ccnn2C)c1C` [Example 118, 2-cyclopropyl-5-methyl-N-[(6-methyl-2-oxo-4-propyl-1,2-dihydropyridin-3-yl)methyl]-6-(1-methyl-1H-pyrazol-5-yl)pyrimidine-4-carboxamide] the figure was 31.8 µM. In the case of `Cc1cc(C)c(CNC(=O)c2ncnc(N3CC[C@@H](C)C3)c2C)c(=O)[nH]1` [Example 120, N-[(4,6-dimethyl-2-oxo-1,2-dihydropyridin-3-yl)methyl]-5-methyl-6-[(3R)-3-methylpyrrolidin-1-yl]pyrimidine-4-carboxamide], the IC50 came to 40.5 µM. For `Cc1cc(C(F)(F)F)c(CNC(=O)c2cccc(-c3ccnn3C)c2Cl)c(=O)[nH]1` [Example 121, 2-chloro-N-{[6-methyl-2-oxo-4-(trifluoromethyl)-1,2-dihydropyridin-3-yl]methyl}-3-(1-methyl-1H-pyrazol-5-yl)benzamide], the IC50 stood at 42.1 µM.

Take `Cc1cc(C)c(CNC(=O)c2ncnc(N3CCCC3C3CC3)c2C)c(=O)[nH]1` (stereo not shown) [Example 122, 6-(2-cyclopropyl-pyrrolidin-1-yl)-N-[(4,6-dimethyl-2-oxo-1,2-dihydropyridin-3-yl)methyl]-5-methylpyrimidine-4-carboxamide]: the concentration for half-maximal inhibition (IC50) came to 43.6 µM. The same measure for `Cc1cc(C)c(CNC(=O)c2ncnc(N3CCOCC3)c2C)c(=O)[nH]1` [Example 123, N-[(4,6-dimethyl-2-oxo-1,2-dihydropyridin-3-yl)methyl]-5-methyl-6-morpholin-4-ylpyrimidine-4-carboxamide]: 44.4 µM. Turning to `Cc1cc(C)c(CNC(=O)c2ncnc(-c3ccnn3C)c2C)c(=O)[nH]1` [Example 124, N-[(4,6-dimethyl-2-oxo-1,2-dihydropyridin-3-yl)methyl]-5-methyl-6-(1-methyl-1H-pyrazol-5-yl)pyrimidine-4-carboxamide], the IC50 stood at 49.3 µM.

Regarding `Cc1cc(C)c(CNC(=O)c2ncnc(N3CCCC3)c2C)c(=O)[nH]1` [Example 125, N-[(4,6-dimethyl-2-oxo-1,2-dihydropyridin-3-yl)methyl]-5-methyl-6-pyrrolidin-1-ylpyrimidine-4-carboxamide], the half-maximal inhibitory concentration (IC50) is 50.7 µM. With `Cc1cc(C)c(CNC(=O)c2cccc(OC(C)C)c2F)c(=O)[nH]1` [Example 130, N-[(4,6-dimethyl-2-oxo-1,2-dihydropyridin-3-yl)methyl]-2-fluoro-3-isopropoxy-benzamide] the figure was 67.9 µM; with `COC[C@H]1CCCN1c1ncnc(C(=O)NCc2c(C)cc(C)[nH]c2=O)c1C` [Example 131, N-[(4,6-dimethyl-2-oxo-1,2-dihydropyridin-3-yl)methyl]-6-[(2R)-2-(methoxymeth-yl)pyrrolidin-1-yl]-5-methylpyrimidine-4-carboxamide], 77.8 µM.

As for `COCC1CCN(c2ncnc(C(=O)NCc3c(C)cc(C)[nH]c3=O)c2C)C1` (stereo not shown) [Example 132, N-[(4,6-dimethyl-2-oxo-1,2-dihydropyridin-3-yl)methyl]-6-[3-(methoxymeth-yl)pyrrolidin-1-yl]-5-methylpyrimidine-4-carboxamide], the 50% inhibitory concentration (IC50) came out at 81.4 µM.

The values are drawn from patent US20170152239A1, “BENZAMIDE AND HETEROBENZAMIDE COMPOUNDS” (PFIZER INC., priority 2012, published 2017).
